Data taken from patent US4698350A, “1-ethyl-6-fluoro-1,4-dihydro- 7-(2,6-dimethyl-4-pyridinyl)-4-oxo-3-quinolinecarboxylic acid and antibacterial use thereof” (Sterling Drug Inc., priority 1984, dated 1987).
≈ marks a conversion by molar mass, not a printed value. Like-named read-outs stand apart in the source and are kept apart here.

Columns and labels:
S. aureus 21-81A = experiment: In vitro antibacterial MIC/MBC test; format: cell-based; settings: Staphylococcus aureus, 2181A, S. aureus 21-81A
In short: (§1)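 Broth microdilution with two-fold serial dilutions in MHB (BHI+1% NHS for streptococci), final inoculum approx. 1×10^5 cells/ml, 37° C. for 18-20 hours. MIC is the lowest concentration preventing visible growth. For MBC, wells were subcultured onto MHA or BHI agar+10% NHS; the MBC is the lowest concentration yielding no recognizable colony.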

S. enterococcus 0-2-13 = experiment: In vitro antibacterial MIC/MBC test; format: cell-based
In short: as §1

S. epidermidis 1-5-H = experiment: In vitro antibacterial MIC/MBC test; format: cell-based; settings: Staphylococcus epidermidis, 15H, S. epidermidis 1-5-H
In short: as §1

S. epidermidis 2-1-B = experiment: In vitro antibacterial MIC/MBC test; format: cell-based; settings: Staphylococcus epidermidis, 21B, S. epidermidis 2-1-B
In short: as §1

S. pneumoniae Type III = experiment: In vitro antibacterial MIC/MBC test; format: cell-based
In short: as §1

S. pyogenes 7948-15 = experiment: In vitro antibacterial MIC/MBC test; format: cell-based; settings: Streptococcus pyogenes, 794815, S. pyogenes 7948-15
In short: as §1

S. pyogenes C203 = experiment: In vitro antibacterial MIC/MBC test; format: cell-based; settings: Streptococcus pyogenes, S. pyogenes C203
In short: as §1

S. aureus = experiment: In vitro MIC/MBC summary (Table II); format: cell-based; settings: Staphylococcus aureus, 15 S. aureus strains
Protocol: (§2) Win 52,522 and Win 35,439 were solubilized in 0.1 ml of 0.5 N NaOH/mg of compound and diluted in sterile distilled water to 160 mcg/ml. Vancomycin and methicillin were solubilized in sterile distilled water to 1250 mcg/ml of base compound. The stock solutions were sterilized by filtration through membrane filters with a 0.45 μm pore size.
(§3) The bacterial cultures listed in Table I (hereinbelow) were grown overnight at 37° C. in MHB for all cultures except the Streptococcus strains. These were grown in BHI+10% NHS. The overnight broth cultures were adjusted to an optical density of 0.10 (650 nm, B L Spectronic 20) in sterile distilled water and subsequently diluted to 6.7×10^6 cells/ml in MHB or BHI+1% NHS.
(§4) Serial two-fold dilutions of the compound solutions were prepared in MHB (or in BHI+1% NHS for tests with Streptococci) and dispensed into 96-well microtiter trays in a volume of 0.1 ml/well using a Sandy Springs (Bellco Glass Co.) dispenser. The trays were then inoculated with 0.0015 ml of a suspension containing 6.7×10^6 cells/ml of the appropriate inoculum using a MIC-2000 inoculator (Dynatech Corp.) resulting in a final inoculum of approximately 1×10^4 cells/well or 1×10^5 cells/ml. The trays were incubated at 37° C. for 18-20 hours and the minimal inhibitory concentration (MIC), defined as the lowest concentration of compound to inhibit visible bacterial growth, was recorded.
(§5) After the MIC values were recorded, the contents in the microtiter trays were thoroughly mixed on a Bellco Mini-orbital Shaker (Bellco Glass Co.) for 3 min. at a setting of 8. A portion (0.0015 ml) from each well was then transferred via an MIC-2000 inoculator to plates containing MHA or BHI agar+10% NHS. The plates were incubated at 37° C. for 18-20 hrs. The minimal bactericidal concentration (MBC), defined as the lowest concentration of compound that prevented the formation of a recognizable colony on the agar surface, was recorded.

Streptococcus sp. = experiment: In vitro MIC/MBC summary (Table II); format: cell-based
Protocol: as §2, §3, §4, §5

S. edidermidis = experiment: In vitro MIC/MBC summary (Table II); format: cell-based, S. epidermidis; settings: Staphylococcus epidermidis, 5 S. edidermidis strains
Protocol: as §2, §3, §4, §5

[1] = test system: Staphylococcus aureus Smith; experiment: Mouse protection test, S. aureus Smith infection, single dose; format: in vivo, ICR mice; Staphylococcus aureus; settings: single dose; for ED50: Staphylococcus aureus, 168 h, read-out: Protective Dose 50% (95% Confidence Limits); for times more efficacious than Win 35,439: S. aureus
Protocol: (§6) ICR mice, female, 18-20 grams each.
(§7) Solutions of Win 52,522 and Win 35,439 were prepared by dissolving the appropriate weight of drug in 0.3 to 0.4 ml of 1 N NaOH and then bringing the solutions to the desired volume with distilled water. Methicillin and vancomycin were dissolved directly in distilled water.
Two and one-half ml of pool were added to 247.5 ml of 5% gastric mucin to provide the test inoculum containing 2.1×10^4 cells/ml.
(§8) Mice were inoculated intraperitoneally with 0.5 ml of the bacterial test inoculum.
1. Single dose test--Mice were medicated subcutaneously or orally once (0.5 ml) one-half hour postinfection.
(§9) Deaths were recorded daily for seven days for all tests. Fifty percent protective dose values (PD50's) were calculated using probit analysis [SAS Users Guide: Statistics, 1982 Edition, SAS Institute, Inc., Cary, N.C.].

[2] = test system: Staphylococcus aureus 39881 (Methicillin-resistant); experiment: Mouse protection test, S. aureus 39881 (methicillin-resistant) infection; format: in vivo, ICR mice; Staphylococcus aureus; settings: for Survivors/Total: two doses; for ED50: Staphylococcus aureus, 168 h, read-out: Protective Dose 50% (95% Confidence Limits); for ED50 / Protective Dose 50% (95% Confidence Limits): two doses one-half and four hours postinfection; for Protective Dose 50% (95% Confidence Limits): 10080 min
Protocol: as §6, §7
The culture was streaked onto three Brain Heart Infusion Agar plates and incubated 16 hours at 37° C. The cells were washed off each plate with five ml of saline and the cell suspension was shaken with glass beads for two minutes on a paint shaker. The suspension was diluted with saline so that a […] gave a 44% T reading on a B+L Spectronic 20 (650 nm) calibrated with saline. The stock suspension was diluted 1:24 (10 ml stock suspension+230 ml 5% mucin) to obtain the test inoculum containing 1.55×10^9 cells/ml.
as §8
Mice were medicated twice: at one-half and four hours postinfection. The drugs were administered by both subcutaneous (0.2 ml) and oral (0.5 ml) routes.
as §9

SMILES: CCn1cc(C(=O)O)c(=O)c2cc(F)c(-c3cc(C)nc(C)c3)cc21 [Win 52,522, 1-ethyl-6-fluoro-1,4-dihydro-7-(2,6-dimethyl-4-pyridinyl)-4-oxo-3-quinolinecarboxylic acid]
- MBC (S. aureus 21-81A; read-out: MBC): 0.015 µg/mL (≈ 0.0441 µM)
- MIC (S. aureus 21-81A; read-out: MIC): 0.015 µg/mL (≈ 0.0441 µM)
- MBC (S. enterococcus 0-2-13; 0213, S. enterococcus 0-2-13, read-out: MBC): 0.25 µg/mL (≈ 0.735 µM)
- MIC (S. enterococcus 0-2-13; 0213, S. enterococcus 0-2-13, read-out: MIC): 0.25 µg/mL (≈ 0.735 µM)
- potency relative to vancomycin (S. enterococcus 0-2-13; in vitro, enterococcus strain 0-2-B): equal in potency
- MBC (S. epidermidis 1-5-H; read-out: MBC): 0.06 µg/mL (≈ 0.176 µM)
- MIC (S. epidermidis 1-5-H; read-out: MIC): 0.06 µg/mL (≈ 0.176 µM)
- MBC (S. epidermidis 2-1-B; read-out: MBC): 0.03 µg/mL (≈ 0.0881 µM)
- MIC (S. epidermidis 2-1-B; read-out: MIC): 0.03 µg/mL (≈ 0.0881 µM)
- MBC (S. pneumoniae Type III; Streptococcus pneumoniae, S. pneumoniae Type III, read-out: MBC): 0.5 µg/mL (≈ 1.47 µM)
- MIC (S. pneumoniae Type III; Streptococcus pneumoniae, S. pneumoniae Type III, read-out: MIC): 0.5 µg/mL (≈ 1.47 µM)
- times less potent than vancomycin (S. pneumoniae Type III; in vitro, S. pneumoniae type III): 8 times
- MBC (S. pyogenes 7948-15; read-out: MBC): 0.5 µg/mL (≈ 1.47 µM)
- MIC (S. pyogenes 7948-15; read-out: MIC): 0.5 µg/mL (≈ 1.47 µM)
- MBC (S. pyogenes C203; read-out: MBC): 0.5 µg/mL (≈ 1.47 µM)
- MIC (S. pyogenes C203; read-out: MIC): 0.5 µg/mL (≈ 1.47 µM)
- MBC (S. aureus; read-out: MBC Range): 0.015 to 0.06 µg/mL (≈ 0.0441 to 0.176 µM)
- MIC50 (S. aureus; read-out: MIC 50%): 0.015 µg/mL (≈ 0.0441 µM)
- MIC90 (S. aureus; read-out: MIC 90%): 0.03 µg/mL (≈ 0.0881 µM)
- MIC (S. aureus; read-out: MIC Range): 0.008 to 0.03 µg/mL (≈ 0.0235 to 0.0881 µM)
- MBC (Streptococcus sp.; 9 Streptococcus sp. strains, read-out: MBC 50%): 0.5 µg/mL (≈ 1.47 µM)
- MBC (Streptococcus sp.; 9 Streptococcus sp. strains, read-out: MBC 90%): 0.5 µg/mL (≈ 1.47 µM)
- MBC (Streptococcus sp.; 9 Streptococcus sp. strains, read-out: MBC Range): 0.125 to 0.5 µg/mL (≈ 0.367 to 1.47 µM)
- MIC50 (Streptococcus sp.; 9 Streptococcus sp. strains, read-out: MIC 50%): 0.25 µg/mL (≈ 0.735 µM)
- MIC (Streptococcus sp.; 9 Streptococcus sp. strains, read-out: MIC Range): 0.125 to 0.5 µg/mL (≈ 0.367 to 1.47 µM)
- MIC90 (Streptococcus sp.; Streptococcus): 0.5 µg/mL (≈ 1.47 µM)
- MBC (S. edidermidis; read-out: MBC 50%): 0.06 µg/mL (≈ 0.176 µM)
- MBC (S. edidermidis; read-out: MBC 90%): 0.06 µg/mL (≈ 0.176 µM)
- MBC (S. edidermidis; read-out: MBC Range): 0.03 to 0.125 µg/mL (≈ 0.0881 to 0.367 µM)
- MIC50 (S. edidermidis; read-out: MIC 50%): 0.06 µg/mL (≈ 0.176 µM)
- MIC90 (S. edidermidis; read-out: MIC 90%): 0.06 µg/mL (≈ 0.176 µM)
- MIC (S. edidermidis; read-out: MIC Range): 0.03 to 0.06 µg/mL (≈ 0.0881 to 0.176 µM)
- Survivors/Total ([1]; 0.095 mg/kg sc): 0/10
- Survivors/Total ([1]; 0.19 mg/kg po): 0/10
- Survivors/Total ([1]; 0.19 mg/kg sc): 0/10
- Survivors/Total ([1]; 0.39 mg/kg po): 0/10
- Survivors/Total ([1]; 0.39 mg/kg sc): 2/10
- Survivors/Total ([1]; 0.78 mg/kg po): 0/10
- Survivors/Total ([1]; 0.78 mg/kg sc): 4/10
- Survivors/Total ([1]; 1.56 mg/kg po): 7/10
- Survivors/Total ([1]; 1.56 mg/kg sc): 10/10
- Survivors/Total ([1]; 3.13 mg/kg po): 10/10
- ED50 ([1]; po): ~1.4 mg/kg
- ED50 ([1]; sc): 0.8 mg/kg
- times more efficacious than Win 35,439 ([1]; po): 3.9 times
- times more efficacious than Win 35,439 ([1]; sc): 3.6 times
- Survivors/Total ([2]; 0.19 mg/kg po): 0/10
- Survivors/Total ([2]; 0.19 mg/kg sc): 0/10
- Survivors/Total ([2]; 0.39 mg/kg po): 0/10
- Survivors/Total ([2]; 0.39 mg/kg sc): 0/10
- Survivors/Total ([2]; 0.78 mg/kg po): 1/10
- Survivors/Total ([2]; 0.78 mg/kg sc): 2/10
- Survivors/Total ([2]; 1.56 mg/kg po): 4/10
- Survivors/Total ([2]; 1.56 mg/kg sc): 10/10
- Survivors/Total ([2]; 3.13 mg/kg po): 10/10
- Survivors/Total ([2]; 3.13 mg/kg sc): 9/10
- Survivors/Total ([2]; 6.25 mg/kg po): 10/10
- Survivors/Total ([2]; 6.25 mg/kg sc): 10/10
- ED50 ([2]; po): 1.6 mg/kg
- ED50 ([2]; sc): 1.1 mg/kg
- times more efficacious than methicillin ([2]; methicillin-resistant S. aureus infection in mice): > 91 times
- Protective Dose 50% (95% Confidence Limits) ([2]; po): 1.6(1.3-2.4) mg/kg
- times more active than Win 35,439 ([2]; sc): 4.5 times
- times more efficacious/active than vancomycin ([2]; sc): 16 times
- Protective Dose 50% (95% Confidence Limits) ([2]; sc): 1.1(0.1-4.1) mg/kg
